Consider one compound from publication PMC9413491, “A Novel and Cross-Species Active Mammalian INDY (NaCT) Inhibitor Ameliorates Hepatic Steatosis in Mice with Diet-Induced Obesity” (Metabolites, 2022).

The term pIC50 denotes the IC50 on a negative log10 scale, so that one unit is a factor of ten. A word on the IC50: it is the concentration needed to halve the response being measured. Low readings indicate greater potency, high ones weaker potency.

One data set has as its target T1, mouse Nact (Mus musculus, UniProt Q67BT3).
T1 construct: expressed in transfected cells; host or cells: HEK293 (DSMZ), stably transfected, G418 selection
T1 sequence (Q67BT3 1-572): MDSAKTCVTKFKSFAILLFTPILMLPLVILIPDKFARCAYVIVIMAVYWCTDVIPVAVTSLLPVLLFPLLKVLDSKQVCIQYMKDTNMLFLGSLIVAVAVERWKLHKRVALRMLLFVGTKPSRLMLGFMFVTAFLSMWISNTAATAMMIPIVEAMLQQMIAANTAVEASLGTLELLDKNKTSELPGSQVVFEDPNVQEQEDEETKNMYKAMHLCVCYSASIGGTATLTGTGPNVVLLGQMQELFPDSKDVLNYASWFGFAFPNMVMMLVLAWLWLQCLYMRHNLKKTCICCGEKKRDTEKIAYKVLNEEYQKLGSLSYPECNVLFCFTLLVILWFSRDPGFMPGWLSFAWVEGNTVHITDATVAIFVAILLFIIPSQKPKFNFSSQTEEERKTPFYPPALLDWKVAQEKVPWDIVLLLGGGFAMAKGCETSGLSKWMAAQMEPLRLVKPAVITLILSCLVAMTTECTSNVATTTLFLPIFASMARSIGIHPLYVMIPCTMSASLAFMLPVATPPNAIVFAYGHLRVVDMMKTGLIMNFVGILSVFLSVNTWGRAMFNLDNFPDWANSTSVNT
Description: [14C] citrate uptake in HEK293 cells recombinantly expressing mouse Nact. The data set is classed as cell-based. Particulars: HEK293 overexpressing mouse Nact, citrate substrate; read-out: IC50 [14C] citrate uptake, HEK293 (mouse Nact). From the text: We determined activity on human NaCT by measuring citrate uptake into HepG2 cells, which endogenously expressed NaCT [37] and for mouse Nact, using HEK293 cells recombinantly expressing mouse Nact (HEK-Nact). We cloned the mouse Slc13a5 cDNA encoding Nact as described previously.
For radiometric [14C] citrate uptake assays, we used Cytostar-T plates (Perkin Elmer#RPNQ0166, Waltham, MA, USA). For each assay, we seeded 20,000 HepG2 cells per well on collagen coated 384-well Cytostar-T plates or 5000 HEK293 cells per well on ploy-D-lysine coated 384-well Cytostar-T plates. On the following day, we changed culture medium to assay buffer: 120 mM NaCl, 5.4 mM KCl, 0.8 mM MgSO4, 5 mM glucose, 1.8 mM CaCl2, 25 mM Hepes, 25 mM MES, pH 6.5 (human) and pH 7.5 (mouse). We preincubated cells with compounds at 37 °C for 20 min, after which we added [14C] citrate (3 µM for HEK cells and 10 µM for HepG2 cells) and incubated cells for 50 min at 37 °C. After cooling down for 15 min at 4 °C, we measured the counts using a Microbeta2 reader system (Perkin Elmer).

Data set [1] in a line: Viability (PrestoBlue) / cytotoxicity in HepG2 cells. The data set is classed as cell-based. As to conditions: human, parallel to fatty acid synthesis assay. As for the experimental part:
We performed the fatty acid synthesis assay in HepG2 cells. We seeded cells into black clear-bottom 96-well plates (Corning 3340 cell plate) 75,000/well and incubated at 37 °C. After 16–24 h, we washed the plates once with 100 µL PBS (+CaCl2 +MgCl2) and added 50 µL assay medium ([…] containing 11 mM glucose, 10 mM HEPES, and 1 nM insulin) per well. Then, we applied test substances in assay medium (10 µL, 5% DMSO) and incubated for 20 min at 37 °C. Thereafter, we added 10 µL assay medium containing [14C] citrate (final concentration 50 µM) and PrestoBlue reagent (1× final concentration; Thermo Fisher Scientific, Waltham, MA, USA) and incubated for 180 min (37 °C, 5% CO2). We measured cell viability (ViewLux instrument, Perkin Elmer). We removed medium by vacuum aspiration and washed cells once with 100 µL PBS (+CaCl2 +MgCl2). We lysed cells with 50 µL lysis buffer (0.1 N NaOH, 0.1 % Triton X-100) and sealed plates with Tape Pads and vortexed. For the saponification reaction, we incubated plates for 16–24 h at 70 °C in a humidified environment. Then, we removed seals and added 200 µL 0.1 N HCl to neutralise the pH. We transferred 150 µL from each into corresponding wells of a 96-well Flash plate (Perkin Elmer) and sealed with TopSeal A (Perkin Elmer). […] We measured [14C] radioactivity (microbeta2, Perkin Elmer). […]

Each structure is given as a SMILES string. pIC50: −log10 of the molar value.

With `O=C(Nc1cc(Cl)cc(C(F)(F)F)c1)OCCC(F)(F)F` [ETG-5773], on mouse Nact, the pIC50 is 6.74. The same compound displayed an IC50 at 180 min in data set [1] above 50 µM.
